Results reported in patent publication US7754272B2, “Local drug delivery” (Biocompatibles IK Limited, priority 1999, dated 2010).

Legend:
[1] = Loading and release from quater polymer membrane; format: physicochemical; settings: caffeine from aqueous, dipyridamole from 1:1 ethanol:water solution
[2] = Ex vivo human saphenous vein model, polymer/dipyridamole coated stents
Method: Palmaz-Schatz Stents (trade mark) were coated with a solution of the same polymer as used in Reference Example 1, dissolved in ethanol at 50 g/l concentration, also containing dipyridamole at 30 g/l concentration. Stents were dipped into the solution by hand, using several coating steps. The stents were then cured overnight at 70 C. in moist air.
The coated stents were tested in an ex vivo model using fresh human saphenous vein, previously washed in the same culture medium as is used in Example 16 above, in the ex vivo tests. The stents were delivered into veins, which were subsequently deposited into apparatus used in Example 16. The circulating liquid, and the vessel wall were analysed at 1, 6 or 24 hours to determine localisation of dipyridamole. […] Similarly, the level of dipyridamole remaining on the stent decreases from 1 hour to 24 hours. […] At this time, dipyridamole is concentrated in the section of the vein immediately surrounding the stent with lower levels in the vessel immediately adjacent those sections.

[3] = Drug loading of HEMA-PC:HEMA:MMA:MBA crosslinked membrane; format: physicochemical; settings: HEMA-PC:HEMA:MMA:MBA copolymer swollen in aqueous drug solution, room temperature, over night
Description: The polymers including MBA were polymerised in situ to form crosslinked membranes. […] The crosslinked polymers were used to form “infinite slabs” type membranes, to simulate the coating on a stent. […] The loaded levels were established to be the following: […]

[4] = Effect of polymer composition on release of dicloxacillin; format: physicochemical; settings: HEMA-PC:LM 1:4 with 2 mole % 3-chloro-2-hydroxypropyl methacrylate vs example 3 polymer, FIG. 2
Description: The membrane formed based on a 1:4 copolymer of HEMA-PC and dodecylmethacrylate (LM) with 2 mole % of reactive monomer which is 3-chloro-2-hydroxypropyl methacrylate, was compared to the polymer crosslinked by diethylenically unsaturated monomer MBA used in example 3 above, to compare release rates to dicloxacillin, a medium molecular weight model drug.

[5] = Release from loaded membrane into water; format: physicochemical; settings: HEMA-PC:HEMA:MMA:MBA membrane, FIG. 1
Description: The profile of fractional release against square root of time for release into water (using the same equipment as example 2) are set out in FIG. 1.

Loading (mg/g polymer) [3] [mg/g polymer]	release half life, polymer having hydrophobic groups versus MBA-crosslinked polymer [4]	SMILES	total loading [1] [mg/g polymer]	dipyridamole within the vessel wall ([2]; 1, 6 or 24 hours)	dipyridamole in the circulating medium ([2]; 1 to 24 hours)	level of drug per stent (coated stent swollen in aqueous caffeine 10 mg/ml)	share of loading released in the first 60 seconds (first 60 seconds)	release times (release into aqueous medium, loaded from 10 mg/ml)	loading levels or release half life versus 10 mg/ml loading (swelling solution 10% w/w caffeine)	release into water [5]
32		OCCN(CCO)c1nc(N2CCCCC2)c2nc(N(CCO)CCO)nc(N3CCCCC3)c2n1 [Dipyridamole, dipyridamole]	18	no dipyridamole could be seen within the vessel wall until twenty four hours after stent deployment	can be detected in the circulating medium after one hour					
32	much higher	Cc1onc(-c2c(Cl)cccc2Cl)c1C(=O)N[C@@H]1C(=O)N2[C@@H]1SC(C)(C)[C@@H]2C(=O)O [Dicloxacillin, dicloxacillin]								

SMILES	Loading (mg/g polymer) [3] [mg/g polymer]	release half life, polymer having hydrophobic groups versus MBA-crosslinked polymer [4]	total loading [1] [mg/g polymer]	dipyridamole within the vessel wall ([2]; 1, 6 or 24 hours)	dipyridamole in the circulating medium ([2]; 1 to 24 hours)	level of drug per stent (coated stent swollen in aqueous caffeine 10 mg/ml)	share of loading released in the first 60 seconds (first 60 seconds)	release times (release into aqueous medium, loaded from 10 mg/ml)	loading levels or release half life versus 10 mg/ml loading (swelling solution 10% w/w caffeine)	release into water [5]
Cn1c(=O)c2c(ncn2C)n(C)c1=O [Caffeine, caffeine]	80		28			around 0.025 mg per stent	at least 80%	negligible	No significant increase	substantially total release after about an hour
